The values that follow come from patent EP1487840B1 (Pfizer Italia S.r.l., priority 2002, dated 2003).

Where a name gives a salt, the structure may show the parent alone. Where only a bound is given, the exact number is not on record here.

The conditions of series [1]: relative to CPT-11; cited from earlier work.
Series [2] in a line: physchem. Conditions: thermodynamic from solid, room temperature; for solubility thermodynamic at 24 h: Irinotecan hydrocholoride concentration; for solubility: no time given.
Method: (§1) The pH is adjusted to the final value with NaOH 1N). An excess solid was put in glass flasks in the presence of the appropriate dissolution media and the suspensions were shaken at room temperature for 24 hours. Samples were withdrawn after 15, 30, 45, 60 min and 24 hours, filtered and analyzed by means of HPLC assay.
For series [3] the following is noted: pH 1.2.
Method: as §1

As for `CCc1c2c(nc3ccc(O)cc13)-c1cc3c(c(=O)n1C2)COC(=O)[C@]3(O)CC` [SN-38, 7-ethyl-10-hydroxy 20 (S) camptothecin], the “more cytotoxic than CPT-11” value in series [1] is listed as 100 fold.
For the compound `CCc1c2c(nc3ccc(OC(=O)N4CCC(N5CCCCC5)CC4)cc13)-c1cc3c(c(=O)n1C2)COC(=O)[C@]3(O)CC` [Form b, (S) -4,11-Diethyl-3,4,12,14-tetrahydro-4-hydroxy-3,14-dioxo-1 H-pyrano[3',4':6,7]-indolizino[1,2-b]quinolin-9-yl[1,4'-bipiperidine]-1'-carboxylate hydrochloride], the solubility (thermodynamic) at 24 h in series [2] (deionized water, water, a = deionized water) was 11200 µg/mL; in series [2] (pH 1.2 buffer, pH 1.2, simulated gastric fluid, b = pH 1.2 buffer), 260 µg/mL. Also, the solubility was roughly 10000 µg/mL in series [2] (deionized water, water, Water solubility, in water) and 10000 µg/mL in series [2] (lactic acid buffer of CAMPTOSAR INJECTION, pH 3.5, aqueous buffer, solubility). In series [2] (pH 3.5, aqueous buffer, equilibrium solubility, pH value of about 3.5), the thermodynamic solubility was less than 20000 µg/mL.
On to `CCc1c2c(nc3ccc(OC(=O)N4CCC(N5CCCCC5)CC4)cc13)-c1cc3c(c(=O)n1C2)COC(=O)[C@]3(O)CC` [Form c, (S)-4,11-Diethyl-3,4,12,14-tetrahydro-4-hydroxy-3,14=dioxo-1 H-pyrano[3',4':6,7]-indolizino[1,2-b]quinolin-9-yl [1,4'-bipiperidine]-1'-carboxylate (irinotecan) hydrochloride], for which the “more soluble with respect to Form b” value in series [3] was 2 orders of magnitude.
